Reference: patent US11957737B2, “Methods of treating microbial infection and inflammation” (Colorado Seminary, Owner and Operator of University of …, priority 2017, dated 2024)

Assays:
[1] = ferrous iron (Fe++) binding capacity of LF; details: FIG. 3
Source text: As noted above, LF binds ferrous iron (Fe++) and controls iron distribution throughout the body and its ability to bind to inflammatory and other cell membranes and impact the activities of these cells through its iron binding activities and other mechanisms. The inventors hypothesized that the antibacterial effect may be linked to the iron binding activity of LF and that this antibacterial effect may be disrupted by nitration.
However, sodium peroxinitrite caused changes that went far beyond the mere nitration of a few tyrosine residues to include destruction of tyrosine and tryptophan which at least in part were converted to unidentified reaction products. Nitration can occur as a consequence of the formation of reactive nitrogen species in the body and as a result of drug or chemical reactions, and/or environmental toxins in polluted air, water, or other routes of intake.

E. coli (ATCC 25922) = experiment: standard broth dilutions susceptibility test, read at 600 nm; type: cell-based
Method: The following methods were used to conduct the experiments described in Examples 1-3, below: The experiments were conducted using the standard broth dilutions susceptibility test (Jorgensen, J. H.; Turnidge, J. D., Susceptibility test methods: dilution and disk diffusion methods. In Manual of Clinical Microbiology, Eleventh Edition, American Society of Microbiology: 2015; pp 1253-73). Briefly, 1 μl of glycerol stock aliquot of E. coli (ATCC 25922) was inculcated into Tryptic Soya agar (TSA) (Sigma Aldrich 22091) plates and incubated at 37° C. for 24 hrs. Subsequently, 3-5 separate colonies were selected and transferred into 4 ml Tryptic Soya broth (TSB) (Sigma Aldrich 22092) and incubated at 37° C. for 24 hrs. After incubation, samples were diluted 4 ml into 50 ml TSB to make E. coli stock. 200 μl samples were then placed into wells of a 96-microwell plate. All samples were prepared in TSB, (Blank) using TSB, ERGO (OXIS International), LF (Sigma Aldrich) and NLF were diluted to 1 mg/ml. The nitration reaction was prepared following the method reported by Selzle et al (Determination of nitration degrees for the birch pollen allergen Bet v 1. Analytical and Bioanalytical Chemistry 2013, 405(27):8945-49). According to this procedure, 400 μl aliquots of 5.0 mg/ml (±5%) LF in aqueous solution were pipetted into glass vials. […] Using the plate reader (Tecan Infinite, M1000 PRO). […]

Q: Which “effect of ERGO on the ferrous iron (Fe++) binding capacity of LF” value [1] does the source give for `C[N+](C)(C)[C@@H](Cc1c[nH]c(=S)[nH]1)C(=O)[O-]` [ERGO, 3-(2-Sulfanylidene-1,3-dihydroimidazol-4-yl)-2-(trimethylazaniumyl)propanoate] here?
A: The value was “does not appear that the ability of ERGO to increase the anti-bacterial activity of LF results from binding of Fe++ on LF”.

Q: And the “growth of E. coli” value (E. coli (ATCC 25922); LF 1 mg/ml or 2 mg/ml, ERGO 5 mM or 50 mM, compared to growth of E. coli without additions, FIGS. 1A and 1B)?
A: Its value is “reduced the growth of E. coli”.

Q: And the “dependence of retained anti-bacterial activity on ERGO concentration” value (E. coli (ATCC 25922); LF exposed to nitrating agents, various concentrations of ERGO, FIG. 2)?
A: The value was “related to the concentration of ERGO added”.
